PMC6030096, “Synergy of Physico-chemical and Biological Experiments for Developing a Cyclooxygenase-2 Inhibitor” (Scientific Reports, 2018)
Read-outs that look alike come from different tables or passages of the source.

Target: T1, COX-1 (Ovis aries, UniProt P05979)
T1 construct: purchased Cayman Chemical Co. 560131
T1 sequence (P05979 25-600): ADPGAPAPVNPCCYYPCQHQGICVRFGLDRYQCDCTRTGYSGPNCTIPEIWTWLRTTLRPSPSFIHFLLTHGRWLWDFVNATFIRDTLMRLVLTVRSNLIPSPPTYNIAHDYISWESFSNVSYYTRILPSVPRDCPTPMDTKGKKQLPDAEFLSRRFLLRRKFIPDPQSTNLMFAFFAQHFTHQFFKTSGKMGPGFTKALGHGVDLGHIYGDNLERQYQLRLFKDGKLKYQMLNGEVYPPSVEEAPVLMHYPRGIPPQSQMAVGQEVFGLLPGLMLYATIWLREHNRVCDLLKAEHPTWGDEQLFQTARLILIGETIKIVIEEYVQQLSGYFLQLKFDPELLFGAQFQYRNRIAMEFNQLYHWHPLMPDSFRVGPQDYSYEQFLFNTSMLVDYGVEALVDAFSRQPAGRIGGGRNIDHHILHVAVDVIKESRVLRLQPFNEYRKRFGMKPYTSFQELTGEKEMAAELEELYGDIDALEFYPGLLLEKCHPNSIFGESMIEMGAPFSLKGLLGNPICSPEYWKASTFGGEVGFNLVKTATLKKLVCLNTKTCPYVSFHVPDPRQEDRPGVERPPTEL
Experiment: COX-1 enzyme immunoassay (Cayman inhibitor screening kit)
Format: biochemical
Experimental: Principally, the catalytic activity of COX-1/2 is slowed down in the presence of its inhibitor and quantitatively, it is inversely proportional to the amount of prostaglandin produced in the presence of inhibitor.
The enzyme inhibition screening assay kits for COX-1/2 and 5-LOX with item no. […] The 100% initial activity tubes for the two enzymes contained 10 µL heme and 10 µL of the enzyme in 160 µL reaction buffer. Then 10 µL inhibitor (compound of above mentioned concentrations) was added to the inhibitor tubes for the two enzymes and 10 µL of vehicle (DMSO) was added to 100% initial activity and background tubes. All the tubes were incubated for 10 min at 37 °C and the reaction was started by adding 10 µL arachidonic acid to all the reaction tubes. After incubation of the reaction vials for 2 min at 37 °C, the enzyme catalysis was stopped by adding 30 µL saturated stannous chloride solution to each test tube and solutions were kept at 0–4 °C. For EIA (enzyme immunoassay) procedure: the EIA buffers and assay specific reagents were prepared as written in the manual. In the COX dilutions, two test tubes labelled as BC1 and BC2 were taken to prepare background samples. Each tube contained 990 µL of EIA buffer and 10 µL of background COX-1 for BC1 and 10 µL of background COX-2 for BC2. The samples for 100% initial activity were diluted in three vials labelled IA1, IA2 and IA3 for each enzyme. IA1 contained 990 µL EIA buffer and 10 µL enzyme, IA2 has 950 µL buffer and 50 µL solution of IA1 (1:2000 dilution of original sample) and IA3 carried 500 µL of buffer and 500 µL of IA2 solution (1:4000 dilution of original sample). Each solution was thoroughly mixed. Solutions of IA2 and IA3 were used for the assaying. […] C2 contained 950 µL buffer and 50 µL solution of C1 (1:2000 dilution of original sample) and vial C3 was charged with 500 µL buffer and 500 µL solution from C2 (1: 4000 dilution of original sample). Only C2 and C3 were run in the assay. After all the reaction dilutions, these were then subjected to 96 wells plate. The wells were divided as: 2 blank wells, 2 NSB wells (non-specific binding), 3 B0 wells (maximum binding), one TA well (total activity), 16 wells for standards (S1–S8 in repeat), 2 BC1 and 2 BC2 wells. Compounds (inhibitors) were put in all the other wells. The sequence for the addition of reagents onto the plate was as per the protocol of the assay kit. […] For developing the plate; it was emptied and washed with wash buffer 5 times followed by the addition of 200 µL Ellman’s reagent to each well. 5 µL tracer was added to the TA well. Then the plate was covered and left for 60 mins for development in dark. After the respective time period the cover was removed and the plate was read at 420 nm. %B/Bo (i.e. % sample or maximum bound) value for standards S1-S8 and each sample was determined from the absorbance values obtained according to the calculation given in the protocol. The amount of prostaglandins formed during the enzymatic reaction was calculated from the values of %B/Bo for all the compounds at all concentrations with the help of the standard curve (plotted between %B/Bo of standards and raw data given in the protocol). Then the prostaglandin formed at each concentration of all the compounds and percentage inhibition values were calculated. The graph between percent inhibition of the enzyme and corresponding concentration of the compound provided IC50 values for the compounds.

[1] = enzyme immunoassay, average of three experiments, read-out: IC50 COX-1

| SMILES | IC50 [1] [µM] | IC50 [µM] |
| --- | --- | --- |
| O=C1Nc2ccccc2C1=Cc1cn(C[C@H](O)Cn2c3ccccc3c(=O)c3ccccc32)c2ccccc12 [(S)-3c] | 60 ± 3 |  |
| O=C1NC(=O)C(=Cc2cn(CCCn3c4ccccc4c(=O)c4ccccc43)c3ccccc23)C(=O)N1 [Compound 4a] |  | 30 ± 1.8 |
| O=C1Nc2ccccc2C1=Cc1cn(CCCn2c3ccccc3c(=O)c3ccccc32)c2ccccc12 [Compound 4c] | 4 ± 0.32 |  |
